In one assay the test system is NPM/ALK+ Karpas299 cells. As to the kind of experiment: NPM/ALK+ Karpas299 tumour growth in SCID mice. The format is in vivo. The conditions noted are these: oral gavage, 150 mg/kg twice per day, subcutaneous Karpas299 tumors in SCID mice. As for the experimental part: The in vivo studies were approved by the Italian Ministry of Research and by the University internal ethical committee, and were run according to guidelines to reduce animal pain. Ten million NPM/ALK+ Karpas299 cells were injected subcutaneously in the right flank of SCID mice. Ten days later, when the tumors reached the size of 100 mm3 on average, mice were randomized either to control arm, receiving vehicle only (0.5% carboxymethylcellulose and 0.1% Tween80), or to treatment arm, receiving compound R533 by oral gavage, 150 mg/kg twice per day. Tumor size was measured bi-weekly by a caliper. General toxicity was assessed by monitoring weight loss, and by visual inspection for any sign of stress or suffering, including eye closure or bulging, ruffled/dull fur, reduced mobility, drowsiness, diarrhea.

Assay [1] has as its system parental untransformed BaF3 cells. As to the kind of experiment: Tritiated thymidine uptake cell proliferation assay, parental BaF3. The conditions noted are these: Mus musculus, BaF3; 3H-thymidine uptake, 72 h, medium with IL-3. The format is cell-based.
In assay [2] the test system is BaF3 cells transformed with the oncogenic fusion protein NPM/ALK. Nature of the assay: cells. The conditions noted are these: read-out: BaF3 NPM/ALK WT IC50.
For assay [3] the test system is unchanged.
For assay [4], the target named is wild-type ALK kinase (rALK) (Homo sapiens (Human), UniProt Q9UM73). As to the kind of experiment: ELISA-based in vitro kinase assay, wild-type ALK. As to conditions: recombinant ALK, 0.3 mM ATP; read-out: ELISA ALK WT IC50. The format is biochemical. As for the experimental part: Recombinant 3C protease was used to remove the GST tag. Purified ALK was used to screen inhibitors in the ELISA-based kinase assay, as follows: Nunc-Immuno 96-well plates were incubated overnight at 30° C. with coating solution containing 2 μg of a specific ALK peptide substrate ([…]) in PBS. Wells were then washed with 200 μL of wash buffer (PBS-Tween 0.05%) and incubated with 4% BSA in PBS for at least 2 h at 30° C. […] For inhibitor testing the reaction mix was preincubated with inhibitor or vehicle for 10 min at room temperature before transferring to the ELISA plate. After the reaction, the wells were washed 5 times with 200 uL of wash buffer. Phosphorylated peptide was detected using 100 μL/well of a mouse monoclonal anti-phosphotyrosine antibody (clone 4G10 UpstateBiotech Ltd) diluted 1:2000 in PBS+4% BSA. After 30 min incubation at room temperature the antibody was removed and wells were washed as described above. 100 μL of a secondary antibody (anti-mouse IgG, Horseradish Peroxidase linked whole antibody, Amersham Pharmacia Biotech) diluted 1:1000 in PBS+4% BSA was added to each well and the plate was incubated again for 30 min at room temperature before washing as above. The plate was developed using 100 μL/well TMB Substrate Solution (Pierce) and the reaction was stopped by adding an equal volume of 1M H2SO4. Finally, the absorbance was read at 450 nm using an ELISA plate reader (Bio-Rad).
Sequence of wild-type ALK kinase (rALK) (Q9UM73 19-1620): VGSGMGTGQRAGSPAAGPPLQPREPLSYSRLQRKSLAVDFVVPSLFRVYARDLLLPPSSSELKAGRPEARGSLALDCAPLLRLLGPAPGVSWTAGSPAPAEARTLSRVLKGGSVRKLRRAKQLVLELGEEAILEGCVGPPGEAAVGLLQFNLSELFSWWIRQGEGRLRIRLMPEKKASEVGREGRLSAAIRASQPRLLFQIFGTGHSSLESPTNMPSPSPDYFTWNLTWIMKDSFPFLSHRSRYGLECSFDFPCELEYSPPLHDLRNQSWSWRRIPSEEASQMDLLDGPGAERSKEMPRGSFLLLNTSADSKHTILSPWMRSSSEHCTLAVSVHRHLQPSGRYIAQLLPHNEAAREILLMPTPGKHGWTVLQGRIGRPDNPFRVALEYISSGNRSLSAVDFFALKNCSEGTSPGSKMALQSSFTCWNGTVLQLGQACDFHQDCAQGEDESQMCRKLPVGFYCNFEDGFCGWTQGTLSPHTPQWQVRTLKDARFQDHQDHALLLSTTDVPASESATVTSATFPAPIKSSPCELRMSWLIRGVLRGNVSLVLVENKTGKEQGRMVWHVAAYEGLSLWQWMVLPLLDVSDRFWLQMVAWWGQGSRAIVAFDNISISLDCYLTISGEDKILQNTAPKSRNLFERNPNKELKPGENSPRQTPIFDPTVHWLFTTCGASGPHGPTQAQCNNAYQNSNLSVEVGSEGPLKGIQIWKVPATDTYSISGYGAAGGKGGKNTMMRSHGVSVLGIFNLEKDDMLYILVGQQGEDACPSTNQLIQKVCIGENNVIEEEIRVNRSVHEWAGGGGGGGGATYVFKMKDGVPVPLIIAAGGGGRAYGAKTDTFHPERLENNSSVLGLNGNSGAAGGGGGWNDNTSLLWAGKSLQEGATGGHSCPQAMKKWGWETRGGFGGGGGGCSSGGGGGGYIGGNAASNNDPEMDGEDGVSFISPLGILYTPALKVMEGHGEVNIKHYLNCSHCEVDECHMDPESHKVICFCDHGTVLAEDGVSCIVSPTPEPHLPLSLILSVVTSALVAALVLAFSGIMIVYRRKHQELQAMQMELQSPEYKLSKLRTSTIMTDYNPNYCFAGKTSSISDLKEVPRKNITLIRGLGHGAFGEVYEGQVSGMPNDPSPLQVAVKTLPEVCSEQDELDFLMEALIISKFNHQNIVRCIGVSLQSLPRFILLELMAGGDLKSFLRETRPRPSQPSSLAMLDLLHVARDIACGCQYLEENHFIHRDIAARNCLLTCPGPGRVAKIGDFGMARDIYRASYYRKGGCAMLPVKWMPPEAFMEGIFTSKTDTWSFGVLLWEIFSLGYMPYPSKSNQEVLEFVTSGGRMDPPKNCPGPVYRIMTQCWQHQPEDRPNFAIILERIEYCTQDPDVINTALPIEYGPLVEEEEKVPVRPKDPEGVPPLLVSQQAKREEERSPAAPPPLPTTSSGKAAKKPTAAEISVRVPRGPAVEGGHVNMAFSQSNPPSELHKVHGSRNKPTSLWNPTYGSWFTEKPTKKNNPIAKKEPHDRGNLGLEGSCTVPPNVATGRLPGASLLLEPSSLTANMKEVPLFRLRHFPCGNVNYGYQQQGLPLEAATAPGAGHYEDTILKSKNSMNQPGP
(In general: An ELISA detects its analyte on a solid surface through an enzyme-linked reagent.)

Read-outs that look alike come from different tables or passages of the source.

On to `CN1CCN(c2ccc(-c3ccc4[nH]c5nccc(-c6ccc(Cc7ccccc7)cc6)c5c4c3)cc2)CC1` [Example 16, 4-(4-Benzylphenyl)-6-[4-(4-methylpiperazin-1-yl)-phenyl]-9H-pyrido[2,3-b]indole], for which the “Tumor size (tumour growth curves)” value in the assay with NPM/ALK+ Karpas299 cells is on record as “remarkable effect”. Further, the IC50 in assay [1] was 8.7 µM.
`CN1CCN(c2ccc(-c3ccc4[nH]c5nccc(-c6ccc(N7CCN(C)CC7)cc6)c5c4c3)cc2)CC1` [Example 20, 4,6-Bis-[4-(4-methylpiperazin-1-yl)-phenyl]-9H-pyrido[2,3-b]indole]: the values for the IC50 in assay [2], in assay [4] and in assay [1] were 0.52 µM, 10 µM and 3.6 µM, respectively. Moreover, the “Selectivity Index (WT)” value in assay [3] amounted to 7.
The corresponding values for `C#Cc1ccnc2[nH]c3ccc(-c4ccc(N5CCN(C)CC5)cc4)cc3c12` [Example 44, 4-Ethynyl-6-(4-(4-methylpiperazin-1-yl)phenyl)-9H-pyrido[2,3-b]indole] are 0.17 µM, 29 µM, 0.35 µM and 2.
With `COc1ccccc1C#Cc1ccnc2c1c1cc(-c3ccc(N4CCN(C)CC4)cc3)ccc1n2C` [Example 45, 4-(2-Methoxyphenylethynyl)-9-methyl-6-[4-(4-methylpiperazin-1-yl)-phenyl]-9H-pyrido[2,3-b]indole], the figures for the IC50 in assay [2], in assay [4] and in assay [1] were 1.1 µM, 3.8 µM and 2.1 µM, respectively. In addition, the “Selectivity Index (WT)” value in assay [3] (BaF3 parental vs NPM/ALK WT) is 2.
As for `COc1ccc(Sc2ccnc3[nH]c4ccc(-c5ccc(N6CCN(C)CC6)cc5)cc4c23)cc1` [Example 46, 4-(4-Methoxy-phenylsulfanyl)-6-[4-(4-methyl-piperazin-1-yl)-phenyl]-9H-pyrido[2,3-b]indole], in assay [4], the IC50 came out at 5.7 µM.
The same measure, in the same setting: the figure for `Cc1ccc(Cn2cc(-c3ccnc4[nH]c5ccc(-c6ccc(N7CCN(C)CC7)cc6)cc5c34)nn2)cc1` [Example 47, 4-(1-(4-methylbenzyl)-1H-1,2,3-triazol-4-yl)-6-(4-(4-methylpiperazin-1-yl)phenyl)-9H-pyrido[2,3-b]indole] is 6.8 µM.
For the molecule `CN1CCN(c2ccc(-c3ccc4[nH]c5nccc(-c6ccc(Cc7ccccc7)cc6C(F)(F)F)c5c4c3)cc2)CC1` [Example 55, 4-(4-benzyl-2-(trifluoromethyl)phenyl)-6-(4-(4-methylpiperazin-1-yl)phenyl)-9H-pyrido[2,3-b]indole], the IC50 in assay [1] worked out at 5.1 µM.
On the same count and under the same terms, the result for `COc1cc(C(O)c2ccccc2)c(OC)cc1-c1ccnc2[nH]c3ccc(-c4ccc(N5CCN(C)CC5)cc4)cc3c12` (centres unmarked) [Example 57, (2,5-dimethoxy-4-(6-(4-(4-methylpiperazin-1-yl)phenyl)-9H-pyrido[2,3-b]indol-4-yl)phenyl)(phenyl)methanol] reads 0.79 µM; that for `CN1CCN(c2ccc(-c3ccc4[nH]c5nccc(N6CCC(Cc7ccccc7)CC6)c5c4c3)cc2)CC1` [Example 58, 4-(4-benzylpiperidin-1-yl)-6-(4-(4-methylpiperazin-1-yl)phenyl)-9H-pyrido[2,3-b]indole], 3.3 µM; that for `CN1CCN(c2ccc(-c3ccc4[nH]c5nccc(N6CCN(Cc7ccccc7)CC6)c5c4c3)cc2)CC1` [Example 59, 4-(4-benzylpiperazin-1-yl)-6-(4-(4-methylpiperazin-1-yl)phenyl)-9H-pyrido[2,3-b]indole], 0.83 µM.
